In US8435983B2, “Conformationally restrained epothilone analogues as anti-leukemic agents” (The University of Toledo, priority 2007, dated 2013):
Read-outs that look alike come from different tables or passages of the source.

Columns and labels:
[1] = tested on: NCI 60 human tumor cell lines, including breast cancer and ovarian cancer cell lines; test: NCI in vitro 60 cell line human tumor screen, cell line panel; type: cell-based
[2] = tested on: CCRF-CEM leukemia cell line; test: NCI in vitro 60 cell line human tumor screen, CCRF-CEM; type: cell-based; settings: NCI 60 cell line screen
SR leukemia cell line [3] = test: NCI in vitro 60 cell line human tumor screen, SR; type: cell-based; settings: NCI 60 cell line screen
SR leukemia cell line [4] = settings: comparison value for paclitaxel; cited from earlier work
[5] = tested on: CCRF-CEM leukemia cell line; settings: comparison value for paclitaxel; cited from earlier work
[6] = tested on: BCF-7 breast cancer cells; test: preliminary growth inhibition assay on BCF-7 breast cancer cells; type: cell-based

CC1=C(c2ccc(C)cn2)C[C@H]2/C=C(/C)CCC[C@H](C)[C@H](O)[C@@H](C)C(=O)C(C)(C)[C@@H](O)CC(=O)O[C@H]12 [Compound 1b, (3S,6R,7S,8S,1′S,5′S)-7,11-Dihydroxy-3,8,8,10,12,16-hexamethyl-2-(5-methyl-pyridin-2-yl)-3a,7,8,10,11,12,13,14,15,17a-decahydro-1H,6H-4-oxa-cyclopentacyclohexadecene-5,9-dione]
growth inhibitory activity on the other NCI 60 cell lines ([1]; all lines other than CCRF-CEM and SR, including breast cancer and ovarian cancer cell lines): no significant activity
GI50 [2]: 2.7 nM
GI50 (SR leukemia cell line [3]): 2.9 nM

CC(=O)O[C@H]1C(=O)[C@@]2(C)[C@H]([C@H](OC(=O)c3ccccc3)[C@]3(O)C[C@H](OC(=O)[C@H](O)[C@@H](NC(=O)c4ccccc4)c4ccccc4)C(C)=C1C3(C)C)[C@]1(OC(C)=O)CO[C@@H]1C[C@@H]2O [paclitaxel]
GI50 (SR leukemia cell line [4]): 15.8 nM
GI50 [5]: 12.6 nM

C=C(C)CCC[C@H](C)[C@H](O)[C@@H](C)C(=O)C(C)(C)[C@@H](O)CC(=O)O[C@@H]1C(C)=C(c2ccc(C)cn2)C[C@H]1/C=C/c1ccccc1 [Compound 35, 3,7-Dihydroxy-4,4,6,8,12-pentamethyl-5-oxo-tridec-12-enoic acid 2-methyl-3-(5-methyl-pyridin-2-yl)-5-styryl-cyclopent-2-enyl ester]
activity in the NCI 60 cell line assay ([1]; any of the cell lines): no significant activity

CC1=C(c2ccccc2)C[C@H]2/C=C(/C)CCC[C@H](C)[C@H](O)[C@@H](C)C(=O)C(C)(C)[C@@H](O)CC(=O)O[C@H]12 [Compound 1a]
growth inhibition [6]: no activity
